Measured values as given in patent publication EP4667483A1, “HUMAN TRANSFERRIN RECEPTOR-BINDING PEPTIDE” (JCR Pharmaceuticals Co., Ltd., priority 2023, dated 2024).
pKd: −log10 of the molar value. One block for each compound: values may come before it. Numbered stars: 1 amine (or outer) side, 2 acyl side, 3 side chain; on linkers, the order of the positions; unused ones are H or OH. Bridge positions count the residues as written; N and C are the ends. Square brackets hold non-standard residues; d marks the D form. Side chains are listed from the residue outwards. Peptide text beside a SMILES is read from it. * marks the point of attachment. Trp(1-CH2COOH) = N[C@@H](Cc1cn(CC(=O)O)c2ccccc12)C(=O)O; CH2CON(CH2CH2)2NCH2COOH = O=C(O)CN1CCN(C(=O)C*)CC1; NMePhe(4-COOH) = CN[C@@H](Cc1ccc(C(=O)O)cc1)C(=O)O; X1 = O=C([C@H](Cc1cccc(C(=O)[*:3])c1)N[*:1])[*:2]; Nle(6-morpholino) = N[C@@H](CCCCN1CCOCC1)C(=O)O; Phe(3-COOH) = N[C@@H](Cc1cccc(C(=O)O)c1)C(=O)O; Trp(7-aza) = N[C@@H](Cc1c[nH]c2ncccc12)C(=O)O; NH(CH2CH2O)8Me = COCCOCCOCCOCCOCCOCCOCCOCCN*; NMePhe(3-Cl) = CN[C@@H](Cc1cccc(Cl)c1)C(=O)O; Piperazinyl(4-CH2COOH) = O=C(O)CN1CCN(*)CC1; 3Pal(6-NH2) = Nc1ccc(C[C@H](N)C(=O)O)cn1; NMeW = CN[C@@H](Cc1c[nH]c2ccccc12)C(=O)O; NMeY = CN[C@@H](Cc1ccc(O)cc1)C(=O)O; Nva(3-Et) = CCC(CC)[C@H](N)C(=O)O; 4Pal = N[C@@H](Cc1ccncc1)C(=O)O; PEG4 = NCCOCCOCCOCCOCCC(=O)O; Carboxymethyl = O=C(O)C*; CO = O=C([*:1])[*:2]

How the values were obtained:
[1] = target: T1, human transferrin receptor (hTfR) (Homo sapiens, UniProt P02786); assay: SPR measurement under pH 7.4 conditions (Biacore T200, CM3 chip, hTfR captured by His Tag antibody); type: binding; settings: read-out: hTfR SPR pH7.4 KD
[2] = target: T1, human transferrin receptor (hTfR); assay: SPR measurement under pH 6.0 conditions (Biacore T200, NTA chip, immobilized hTfR); type: binding; settings: read-out: hTfR SPR pH6.0 KD
[3] = SPR, pH 7.4, peptide with the linker named in the table
[4] = SPR, pH 6.0, peptide with the linker named in the table

T1 sequence (P02786 whole entry): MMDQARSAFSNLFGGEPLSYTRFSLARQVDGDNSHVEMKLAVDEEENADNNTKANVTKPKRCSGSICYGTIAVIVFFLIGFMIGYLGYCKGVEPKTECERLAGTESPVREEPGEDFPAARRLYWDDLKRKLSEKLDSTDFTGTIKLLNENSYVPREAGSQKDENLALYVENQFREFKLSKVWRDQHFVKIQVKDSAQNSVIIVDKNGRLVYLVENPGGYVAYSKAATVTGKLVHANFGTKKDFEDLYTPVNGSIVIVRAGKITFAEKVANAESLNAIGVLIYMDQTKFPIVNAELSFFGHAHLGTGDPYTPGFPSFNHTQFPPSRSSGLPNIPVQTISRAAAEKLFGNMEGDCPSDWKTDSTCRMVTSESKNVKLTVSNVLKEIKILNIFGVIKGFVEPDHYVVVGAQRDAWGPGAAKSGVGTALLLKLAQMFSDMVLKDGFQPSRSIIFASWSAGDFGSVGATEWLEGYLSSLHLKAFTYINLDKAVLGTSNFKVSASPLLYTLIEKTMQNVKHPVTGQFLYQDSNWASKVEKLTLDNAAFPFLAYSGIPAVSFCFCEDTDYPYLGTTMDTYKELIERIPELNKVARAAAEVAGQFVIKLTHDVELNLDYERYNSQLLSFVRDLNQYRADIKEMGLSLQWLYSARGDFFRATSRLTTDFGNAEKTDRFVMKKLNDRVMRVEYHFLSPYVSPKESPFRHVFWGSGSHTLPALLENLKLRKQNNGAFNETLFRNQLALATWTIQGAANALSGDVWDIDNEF

SMILES: CC[C@H](C)[C@@H]1NC(=O)[C@H](Cc2ccc(OC)cc2)NC(=O)[C@H](Cc2ccc(N)nc2)NC(=O)[C@H](CC(N)=O)NC(=O)[C@H](Cc2c[nH]c3ccccc23)NC(=O)[C@H](C(C)C)NC(=O)[C@H](Cc2cccc(Cl)c2)N(C)C(=O)[C@H](C(C)C)NC(=O)[C@H](C)NC(=O)CSC[C@@H](C(=O)NCC(=O)NCC(=O)NCC(=O)NCC(=O)N[C@@H](CO)C(=O)N[C@@H](CO)C(=O)N[C@@H](CCCCN=[N+]=[N-])C(N)=O)NC(=O)[C@H](Cc2ccc(O)cc2)N(C)C(=O)[C@H](Cc2ccncc2)NC(=O)[C@H](CCCNC(=N)N)NC(=O)[C@H](CCCNC(=N)N)NC(=O)[C@H]([C@@H](C)CC)NC1=O [compound 191]
pKd ([1]; SPR, pH 7.4, Table 1-3-2-2): 9.05
pKd ([2]; SPR, pH 6.0, Table 1-3-2-2): 8.42

SMILES: CC[C@H](C)[C@@H]1NC(=O)[C@H](Cc2ccc(OC)cc2)NC(=O)[C@H](Cc2ccc(O)cc2)NC(=O)[C@H](CC(N)=O)NC(=O)[C@H](Cc2cn(C)c3ccccc23)NC(=O)[C@H](C(C)C)NC(=O)[C@H](Cc2cccc(Cl)c2)N(C)C(=O)[C@H](C(C)C)NC(=O)[C@H](C)NC(=O)CSC[C@@H](C(=O)NCCOCCOCCOCCOCCC(N)=O)NC(=O)[C@H](Cc2ccc(O)cc2)N(C)C(=O)[C@H](Cc2ccncc2)NC(=O)[C@H](CCCNC(=N)N)NC(=O)[C@H](CCCCN)NC(=O)[C@H]([C@@H](C)CC)NC1=O [compound 130]
pKd [1, 3]: 9.17
pKd [2, 4]: 8.76

SMILES: CC[C@H](C)[C@@H]1NC(=O)[C@H](Cc2ccc(OCC(=O)N3CCN(CC(=O)O)CC3)cc2)NC(=O)[C@H](Cc2ccc(O)cc2)NC(=O)[C@H](CC(N)=O)NC(=O)[C@H](Cc2c[nH]c3ncccc23)NC(=O)[C@H](C(C)C)NC(=O)[C@H](Cc2cccc(Cl)c2)N(C)C(=O)[C@H](C(C)C)NC(=O)[C@H](C)NC(=O)CSC[C@@H](C(=O)NCCOCCOCCOCCOCCC(N)=O)NC(=O)[C@H](Cc2ccc(O)cc2)N(C)C(=O)[C@H](Cc2cccc(C(=O)O)c2)NC(=O)[C@H](CCCCN2CCOCC2)NC(=O)[C@H](CCC(=O)NCCOCCOCCOCCOCCOCCOCCOCCOC)NC(=O)[C@H]([C@@H](C)CC)NC1=O [compound 21] ({CH2CO}-AV[NMePhe(3-Cl)]V[Trp(7-aza)]NYY(CH2CON(CH2CH2)2NCH2COOH)IIE(NH(CH2CH2O)8Me)[Nle(6-morpholino)][Phe(3-COOH)][NMeY]C[PEG4]-NH2; thioether N-15)
pKd ([1]; pH 7.4, single-cycle kinetics): 8.27
pKd ([2]; pH 6.0, single-cycle kinetics): 7.00

SMILES: CCC(CC)[C@@H]1NC(=O)[C@H](Cc2ccc(OCC(=O)O)cc2)NC(=O)[C@H](Cc2ccc(N)nc2)NC(=O)[C@H](CC(N)=O)NC(=O)[C@H](Cc2cn(CC(=O)O)c3ccccc23)NC(=O)[C@H](C(C)C)NC(=O)[C@H](Cc2cccc(Cl)c2)N(C)C(=O)[C@H](C(C)C)NC(=O)[C@H](C)NC(=O)CSC[C@@H](C(=O)NCCOCCOCCOCCOCCC(N)=O)NC(=O)[C@H](Cc2ccc(O)cc2)N(C)C(=O)[C@H](Cc2ccncc2)NC(=O)[C@H](CCCCN2CCOCC2)NC(=O)[C@H](CCC(N)=O)NC(=O)[C@H]([C@@H](C)CC)NC1=O [compound 47] ({CH2CO}-AV[NMePhe(3-Cl)]V[Trp(1-CH2COOH)]N[3Pal(6-NH2)]Y(Carboxymethyl)[Nva(3-Et)]IQ[Nle(6-morpholino)][4Pal][NMeY]C[PEG4]-NH2; thioether N-15)
pKd ([1]; pH 7.4, single-cycle kinetics): 6.94
pKd ([2]; pH 6.0, single-cycle kinetics): 6.60

SMILES: CCC(CC)[C@@H]1NC(=O)[C@H](Cc2ccc(OCC(=O)O)cc2)NC(=O)[C@H](Cc2ccc(O)cc2)NC(=O)[C@H](CC(N)=O)NC(=O)[C@H](Cc2c[nH]c3ccccc23)NC(=O)[C@H](C(C)C)NC(=O)[C@H](Cc2cccc(Cl)c2)N(C)C(=O)[C@H](C(C)C)NC(=O)[C@H](C)NC(=O)CSC[C@@H](C(=O)NCCOCCOCCOCCOCCC(N)=O)NC(=O)[C@H](Cc2ccc(C(=O)O)cc2)N(C)C(=O)[C@H](Cc2cccc(C(=O)NCCOCCOCCOCCOCCC(=O)O)c2)NC(=O)[C@H](CCCNC(=N)N)NC(=O)[C@H](CCC(N)=O)NC(=O)[C@H]([C@@H](C)CC)NC1=O [compound 110] ({CH2CO}-AV[NMePhe(3-Cl)]VWNYY(Carboxymethyl)[Nva(3-Et)]IQR[X1](PEG4)[NMePhe(4-COOH)]C[PEG4]-NH2; thioether N-15)
pKd [1, 3]: 8.13
pKd [2, 4]: 7.89

Continued by rising pKd ([1]; pH 7.4, single-cycle kinetics), values first:

pKd ([1]; pH 7.4, single-cycle kinetics): 8.28
pKd ([2]; pH 6.0, single-cycle kinetics): 7.83
SMILES: CC[C@H](C)[C@@H]1NC(=O)[C@H](Cc2ccc(OCC(=O)N3CCN(CC(=O)O)CC3)cc2)NC(=O)[C@H](Cc2ccc(O)cc2)NC(=O)[C@H](CC(N)=O)NC(=O)[C@H](Cc2cn(CC(=O)O)c3ccccc23)NC(=O)[C@H](C(C)C)NC(=O)[C@H](Cc2cccc(Cl)c2)N(C)C(=O)[C@H](C(C)C)NC(=O)[C@H](C)NC(=O)CSC[C@@H](C(=O)NCCOCCOCCOCCOCCC(N)=O)NC(=O)[C@H](Cc2ccc(O)cc2)N(C)C(=O)[C@H](Cc2ccncc2)NC(=O)[C@H](CCCNC(=N)N)NC(=O)[C@H](CCCCNC(=O)N2CCN(CC(=O)O)CC2)NC(=O)[C@H]([C@@H](C)CC)NC1=O [compound 34]

pKd ([1]; pH 7.4, single-cycle kinetics): 8.32
pKd ([2]; pH 6.0, single-cycle kinetics): 8.10
SMILES: CC[C@H](C)[C@@H]1NC(=O)[C@H](Cc2ccc(OCC(=O)N3CCN(CC(=O)O)CC3)cc2)NC(=O)[C@H](Cc2ccc(O)cc2)NC(=O)[C@H](CC(N)=O)NC(=O)[C@H](Cc2c[nH]c3ncccc23)NC(=O)[C@H](C(C)C)NC(=O)[C@H](Cc2cccc(Cl)c2)N(C)C(=O)[C@H](C(C)C)NC(=O)[C@H](C)NC(=O)CSC[C@@H](C(=O)NCCOCCOCCOCCOCCC(N)=O)NC(=O)[C@H](Cc2ccc(O)cc2)N(C)C(=O)[C@H](Cc2ccncc2)NC(=O)[C@H](CCCCN2CCOCC2)NC(=O)[C@H](CCCCNC(=O)N2CCN(CC(=O)O)CC2)NC(=O)[C@H]([C@@H](C)CC)NC1=O [compound 19] ({CH2CO}-AV[NMePhe(3-Cl)]V[Trp(7-aza)]NYY(CH2CON(CH2CH2)2NCH2COOH)IIK([CO-Piperazinyl(4-CH2COOH)])[Nle(6-morpholino)][4Pal][NMeY]C[PEG4]-NH2; thioether N-15)

pKd ([1]; pH 7.4, single-cycle kinetics): 8.37
pKd ([2]; pH 6.0, single-cycle kinetics): 6.30
SMILES: CC[C@H](C)[C@@H]1NC(=O)[C@H](Cc2ccc(OCC(=O)N3CCN(CC(=O)O)CC3)cc2)NC(=O)[C@H](Cc2ccc(N)nc2)NC(=O)[C@H](CC(N)=O)NC(=O)[C@H](Cc2cn(CC(=O)O)c3ccccc23)NC(=O)[C@H](C(C)C)NC(=O)[C@H](Cc2cccc(Cl)c2)N(C)C(=O)[C@H](C(C)C)NC(=O)[C@H](C)NC(=O)CSC[C@@H](C(=O)NCCOCCOCCOCCOCCC(N)=O)NC(=O)[C@H](Cc2ccc(O)cc2)N(C)C(=O)[C@H](Cc2ccncc2)NC(=O)[C@H](CCCCN2CCOCC2)NC(=O)[C@H](CCCCNC(=O)N2CCN(CC(=O)O)CC2)NC(=O)[C@H]([C@@H](C)CC)NC1=O [compound 17] ({CH2CO}-AV[NMePhe(3-Cl)]V[Trp(1-CH2COOH)]N[3Pal(6-NH2)]Y(CH2CON(CH2CH2)2NCH2COOH)IIK([CO-Piperazinyl(4-CH2COOH)])[Nle(6-morpholino)][4Pal][NMeY]C[PEG4]-NH2; thioether N-15)

pKd ([1]; pH 7.4, single-cycle kinetics): 8.64
pKd ([2]; pH 6.0, single-cycle kinetics): 7.79
SMILES: CC[C@H](C)[C@@H]1NC(=O)[C@H](Cc2ccc(OC)cc2)NC(=O)[C@H](Cc2ccc(N)nc2)NC(=O)[C@H](CC(N)=O)NC(=O)[C@H](Cc2c[nH]c3ncccc23)NC(=O)[C@H](C(C)C)NC(=O)[C@H](Cc2cccc(Cl)c2)N(C)C(=O)[C@H](C(C)C)NC(=O)[C@H](C)NC(=O)CSC[C@@H](C(=O)NCC(=O)N[C@@H](CCCCN=[N+]=[N-])C(N)=O)NC(=O)[C@H](Cc2ccc(O)cc2)N(C)C(=O)[C@H](Cc2ccncc2)NC(=O)[C@H](CCCNC(=N)N)NC(=O)[C@H](CCCNC(=N)N)NC(=O)[C@H]([C@@H](C)CC)NC1=O [compound 66]

pKd ([1]; pH 7.4, single-cycle kinetics): 8.73
pKd ([2]; pH 6.0, single-cycle kinetics): 7.52
SMILES: CC[C@H](C)[C@@H]1NC(=O)[C@H](Cc2ccc(OCC(=O)N3CCN(CC(=O)O)CC3)cc2)NC(=O)[C@H](Cc2ccc(O)cc2)NC(=O)[C@H](CC(N)=O)NC(=O)[C@H](Cc2c[nH]c3ncccc23)NC(=O)[C@H](C(C)C)NC(=O)[C@H](Cc2cccc(Cl)c2)N(C)C(=O)[C@H](C(C)C)NC(=O)[C@H](C)NC(=O)CSC[C@@H](C(=O)NCCOCCOCCOCCOCCC(N)=O)NC(=O)[C@H](Cc2ccc(O)cc2)N(C)C(=O)[C@H](Cc2ccncc2)NC(=O)[C@H](CCCNC(=N)N)NC(=O)[C@H](CCCCNC(=O)N2CCN(CC(=O)O)CC2)NC(=O)[C@H]([C@@H](C)CC)NC1=O [compound 18]

pKd ([1]; pH 7.4, single-cycle kinetics): 9.41
pKd ([2]; pH 6.0, single-cycle kinetics): 8.51
SMILES: CC[C@H](C)[C@@H]1NC(=O)[C@H](Cc2ccc(OCC(=O)O)cc2)NC(=O)[C@H](Cc2ccc(O)cc2)NC(=O)[C@H](CC(N)=O)NC(=O)[C@H](Cc2c[nH]c3ccccc23)N(C)C(=O)[C@H](C(C)C)NC(=O)[C@H](Cc2cccc(Cl)c2)N(C)C(=O)[C@H](C(C)C)NC(=O)[C@H](C)NC(=O)CSC[C@@H](C(=O)NCCOCCOCCOCCOCCC(N)=O)NC(=O)[C@H](Cc2ccc(C(=O)NCCOCCOCCOCCOCCC(=O)O)cc2)N(C)C(=O)[C@H](Cc2cccc(C(=O)O)c2)NC(=O)[C@H](CCCNC(=N)N)NC(=O)[C@H](CCCCN)NC(=O)[C@H]([C@@H](C)CC)NC1=O [compound 178] ({CH2CO}-AV[NMePhe(3-Cl)]V[NMeW]NYY(Carboxymethyl)IIKR[Phe(3-COOH)][NMePhe(4-COOH)](PEG4)C[PEG4]-NH2; thioether N-15)

pKd ([1]; pH 7.4, single-cycle kinetics): 9.87
pKd ([2]; pH 6.0, single-cycle kinetics): 8.65
SMILES: CC[C@H](C)[C@@H]1NC(=O)[C@H](Cc2ccc(OCC(=O)O)cc2)NC(=O)[C@H](Cc2ccc(O)cc2)NC(=O)[C@H](CC(N)=O)NC(=O)[C@H](Cc2c[nH]c3ccccc23)N(C)C(=O)[C@H](C(C)C)NC(=O)[C@H](Cc2cccc(Cl)c2)N(C)C(=O)[C@H](C(C)C)NC(=O)[C@H](C)NC(=O)CSC[C@@H](C(=O)NCCOCCOCCOCCOCCC(N)=O)NC(=O)[C@H](Cc2ccc(O)cc2)N(C)C(=O)[C@H](Cc2cccc(C(=O)O)c2)NC(=O)[C@H](CCCNC(=N)N)NC(=O)[C@H](CCCCN)NC(=O)[C@H]([C@@H](C)CC)NC1=O [compound 177]
